Key:
FGR = target: T1, FGR (Homo sapiens, UniProt P09769); test: live-cell confocal co-localization (HaloTag recruitment to endosome/F-actin) in HeLa cells; type: cell-based
T1 construct: EGFP-fusion of wild-type FGR

ABL1 = target: T2, ABL1 (Homo sapiens, UniProt P00519); test: Kinase-Glo Plus luminescence kinase assay; also live-cell co-localization competed by excess dasatinib; type: biochemical
T2 construct: recombinant active kinase ABL1

SRC = target: T3, SRC (Homo sapiens, UniProt P12931); test: Western blot of pY416 autophosphorylation of EGFP-SRC in HeLa cells; live-cell co-localization imaging; type: cell-based
T3 construct: full-length SRC (EGFP-SRC)

HCK = target: T4, HCK (Homo sapiens, UniProt P08631); test: live-cell confocal co-localization (HaloTag recruitment to endosome/F-actin) in HeLa cells; type: cell-based
T4 construct: EGFP-fusion of wild-type HCK

LYN = target: T5, LYN (Homo sapiens, UniProt P07948); test: as above; type: cell-based
T5 construct: EGFP-fusion of wild-type LYN

YES1 = target: T6, YES1 (Homo sapiens, UniProt P07947); test: as above; type: cell-based
T6 construct: EGFP-fusion of wild-type YES1

BTK = target: T7, BTK (Homo sapiens, UniProt Q06187); test: as above; type: cell-based
T7 construct: EGFP-fusion of wild-type BTK

CSK = target: T8, CSK (Homo sapiens, UniProt P41240); test: as above; type: cell-based
T8 construct: EGFP-fusion of wild-type CSK
Text: live-cell confocal co-localization (HaloTag recruitment to endosome/F-actin) in HeLa cells on CSK | […]

T8 sequence (P41240 whole entry, the tested form may be a part): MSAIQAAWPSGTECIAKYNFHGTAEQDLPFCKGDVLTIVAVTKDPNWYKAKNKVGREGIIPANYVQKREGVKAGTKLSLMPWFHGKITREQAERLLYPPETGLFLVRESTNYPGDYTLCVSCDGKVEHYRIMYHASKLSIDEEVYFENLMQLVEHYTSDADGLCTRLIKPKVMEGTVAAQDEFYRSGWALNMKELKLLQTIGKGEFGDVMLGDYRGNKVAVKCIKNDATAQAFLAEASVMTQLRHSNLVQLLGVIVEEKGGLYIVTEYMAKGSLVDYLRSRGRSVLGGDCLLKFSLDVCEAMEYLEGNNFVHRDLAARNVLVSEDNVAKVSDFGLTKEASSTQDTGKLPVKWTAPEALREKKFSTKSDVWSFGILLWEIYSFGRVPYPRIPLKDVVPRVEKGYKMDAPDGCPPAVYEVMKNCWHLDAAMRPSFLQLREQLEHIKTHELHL
T2 sequence (P00519 whole entry): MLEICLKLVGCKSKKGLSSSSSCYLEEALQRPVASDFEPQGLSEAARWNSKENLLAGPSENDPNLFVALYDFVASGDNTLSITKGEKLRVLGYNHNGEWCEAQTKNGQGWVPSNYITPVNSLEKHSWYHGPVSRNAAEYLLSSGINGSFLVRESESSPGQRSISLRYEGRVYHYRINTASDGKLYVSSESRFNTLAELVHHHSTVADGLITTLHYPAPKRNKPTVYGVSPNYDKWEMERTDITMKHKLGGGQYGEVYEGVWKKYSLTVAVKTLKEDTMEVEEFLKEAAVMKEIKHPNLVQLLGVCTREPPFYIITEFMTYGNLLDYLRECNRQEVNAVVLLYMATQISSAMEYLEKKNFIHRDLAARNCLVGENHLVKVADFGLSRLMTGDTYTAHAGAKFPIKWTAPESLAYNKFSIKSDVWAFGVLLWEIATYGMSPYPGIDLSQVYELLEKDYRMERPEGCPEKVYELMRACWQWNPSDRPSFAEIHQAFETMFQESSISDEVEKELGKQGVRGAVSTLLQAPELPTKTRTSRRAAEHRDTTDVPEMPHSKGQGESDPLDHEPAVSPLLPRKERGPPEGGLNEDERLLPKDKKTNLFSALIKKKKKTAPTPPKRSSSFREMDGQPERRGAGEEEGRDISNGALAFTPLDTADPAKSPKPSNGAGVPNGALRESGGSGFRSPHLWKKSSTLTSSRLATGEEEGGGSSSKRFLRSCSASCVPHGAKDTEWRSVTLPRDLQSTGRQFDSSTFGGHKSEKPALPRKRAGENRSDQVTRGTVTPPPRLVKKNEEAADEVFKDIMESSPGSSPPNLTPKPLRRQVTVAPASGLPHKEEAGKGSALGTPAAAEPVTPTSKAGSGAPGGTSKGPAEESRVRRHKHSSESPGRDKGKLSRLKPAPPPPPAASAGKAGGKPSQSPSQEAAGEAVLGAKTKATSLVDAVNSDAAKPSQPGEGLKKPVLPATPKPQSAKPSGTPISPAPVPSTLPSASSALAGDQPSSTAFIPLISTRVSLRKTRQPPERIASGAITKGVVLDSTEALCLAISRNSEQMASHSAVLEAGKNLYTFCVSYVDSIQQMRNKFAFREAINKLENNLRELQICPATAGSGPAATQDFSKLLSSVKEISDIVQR
T4 sequence (P08631 2-526): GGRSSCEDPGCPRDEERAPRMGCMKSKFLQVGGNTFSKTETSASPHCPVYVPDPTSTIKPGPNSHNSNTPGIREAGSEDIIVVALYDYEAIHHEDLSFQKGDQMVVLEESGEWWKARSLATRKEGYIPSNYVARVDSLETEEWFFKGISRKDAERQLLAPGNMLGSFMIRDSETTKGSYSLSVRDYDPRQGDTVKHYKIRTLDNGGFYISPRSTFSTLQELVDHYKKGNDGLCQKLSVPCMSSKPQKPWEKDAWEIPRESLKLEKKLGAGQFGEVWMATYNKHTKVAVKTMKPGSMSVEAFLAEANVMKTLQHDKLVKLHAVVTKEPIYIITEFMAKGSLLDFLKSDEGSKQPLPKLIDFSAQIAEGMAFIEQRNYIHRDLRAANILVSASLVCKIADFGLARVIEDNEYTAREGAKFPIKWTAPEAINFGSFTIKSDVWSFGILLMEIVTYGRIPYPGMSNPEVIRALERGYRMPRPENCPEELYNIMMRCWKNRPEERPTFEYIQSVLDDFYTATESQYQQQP
T1 sequence (P09769 2-529): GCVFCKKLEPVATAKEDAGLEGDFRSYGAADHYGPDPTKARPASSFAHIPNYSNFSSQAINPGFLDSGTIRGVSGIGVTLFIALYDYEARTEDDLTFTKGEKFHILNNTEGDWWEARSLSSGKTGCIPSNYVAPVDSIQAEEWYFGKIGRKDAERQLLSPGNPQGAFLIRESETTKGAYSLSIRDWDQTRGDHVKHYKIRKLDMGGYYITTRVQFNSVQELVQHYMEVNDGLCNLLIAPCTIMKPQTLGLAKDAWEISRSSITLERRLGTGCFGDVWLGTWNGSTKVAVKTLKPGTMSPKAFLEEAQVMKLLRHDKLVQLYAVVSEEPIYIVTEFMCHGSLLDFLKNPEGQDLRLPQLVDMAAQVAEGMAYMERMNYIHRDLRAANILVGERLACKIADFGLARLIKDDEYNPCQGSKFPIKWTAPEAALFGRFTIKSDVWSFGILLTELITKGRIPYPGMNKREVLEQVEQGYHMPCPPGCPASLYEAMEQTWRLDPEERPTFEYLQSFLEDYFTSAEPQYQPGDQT
T7 sequence (Q06187 whole entry, the tested form may be a part): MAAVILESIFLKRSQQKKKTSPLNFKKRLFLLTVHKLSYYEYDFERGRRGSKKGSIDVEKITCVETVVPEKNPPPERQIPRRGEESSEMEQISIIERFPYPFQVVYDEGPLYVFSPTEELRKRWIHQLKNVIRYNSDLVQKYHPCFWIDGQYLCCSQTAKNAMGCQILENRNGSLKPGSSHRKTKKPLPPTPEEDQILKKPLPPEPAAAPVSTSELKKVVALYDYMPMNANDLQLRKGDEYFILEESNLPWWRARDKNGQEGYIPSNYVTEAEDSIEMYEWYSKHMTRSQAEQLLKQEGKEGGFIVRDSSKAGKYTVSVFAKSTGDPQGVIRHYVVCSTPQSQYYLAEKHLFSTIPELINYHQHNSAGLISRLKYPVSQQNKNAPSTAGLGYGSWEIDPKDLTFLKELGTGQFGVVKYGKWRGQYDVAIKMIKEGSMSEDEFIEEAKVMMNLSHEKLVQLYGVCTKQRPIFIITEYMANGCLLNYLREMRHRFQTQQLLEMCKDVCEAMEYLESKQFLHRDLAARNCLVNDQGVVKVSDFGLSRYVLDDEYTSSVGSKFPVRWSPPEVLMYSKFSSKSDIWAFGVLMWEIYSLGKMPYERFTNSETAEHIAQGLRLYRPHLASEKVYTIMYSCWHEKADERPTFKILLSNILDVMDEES
T5 sequence (P07948 2-491 isoform P07948-2): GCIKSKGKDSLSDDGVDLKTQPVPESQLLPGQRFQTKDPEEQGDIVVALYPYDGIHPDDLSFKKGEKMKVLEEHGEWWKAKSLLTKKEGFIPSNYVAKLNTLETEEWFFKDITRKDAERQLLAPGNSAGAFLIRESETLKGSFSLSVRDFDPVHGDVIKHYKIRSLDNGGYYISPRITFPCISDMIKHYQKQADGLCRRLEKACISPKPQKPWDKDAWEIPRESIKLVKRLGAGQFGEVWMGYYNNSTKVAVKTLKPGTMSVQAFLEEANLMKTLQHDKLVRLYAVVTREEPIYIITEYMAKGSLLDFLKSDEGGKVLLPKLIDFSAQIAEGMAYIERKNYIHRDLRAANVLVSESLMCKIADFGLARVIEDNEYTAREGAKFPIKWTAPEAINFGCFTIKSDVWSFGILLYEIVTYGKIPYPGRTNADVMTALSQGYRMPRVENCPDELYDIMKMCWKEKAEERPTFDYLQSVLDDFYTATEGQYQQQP
T3 sequence (P12931 2-536): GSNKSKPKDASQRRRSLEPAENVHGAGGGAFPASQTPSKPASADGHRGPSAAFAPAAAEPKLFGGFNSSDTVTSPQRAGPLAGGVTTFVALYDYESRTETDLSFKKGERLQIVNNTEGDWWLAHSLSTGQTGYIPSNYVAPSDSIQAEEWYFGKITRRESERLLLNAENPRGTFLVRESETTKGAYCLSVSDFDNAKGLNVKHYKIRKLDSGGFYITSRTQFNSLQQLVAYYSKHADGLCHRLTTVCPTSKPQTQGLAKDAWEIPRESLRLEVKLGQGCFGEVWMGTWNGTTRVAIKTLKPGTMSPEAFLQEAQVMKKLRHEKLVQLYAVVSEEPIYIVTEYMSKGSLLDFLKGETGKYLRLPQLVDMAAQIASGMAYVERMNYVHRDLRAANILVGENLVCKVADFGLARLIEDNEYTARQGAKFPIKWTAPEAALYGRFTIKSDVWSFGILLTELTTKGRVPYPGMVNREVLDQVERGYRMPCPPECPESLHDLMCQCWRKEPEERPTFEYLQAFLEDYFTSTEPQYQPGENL
T6 sequence (P07947 2-543): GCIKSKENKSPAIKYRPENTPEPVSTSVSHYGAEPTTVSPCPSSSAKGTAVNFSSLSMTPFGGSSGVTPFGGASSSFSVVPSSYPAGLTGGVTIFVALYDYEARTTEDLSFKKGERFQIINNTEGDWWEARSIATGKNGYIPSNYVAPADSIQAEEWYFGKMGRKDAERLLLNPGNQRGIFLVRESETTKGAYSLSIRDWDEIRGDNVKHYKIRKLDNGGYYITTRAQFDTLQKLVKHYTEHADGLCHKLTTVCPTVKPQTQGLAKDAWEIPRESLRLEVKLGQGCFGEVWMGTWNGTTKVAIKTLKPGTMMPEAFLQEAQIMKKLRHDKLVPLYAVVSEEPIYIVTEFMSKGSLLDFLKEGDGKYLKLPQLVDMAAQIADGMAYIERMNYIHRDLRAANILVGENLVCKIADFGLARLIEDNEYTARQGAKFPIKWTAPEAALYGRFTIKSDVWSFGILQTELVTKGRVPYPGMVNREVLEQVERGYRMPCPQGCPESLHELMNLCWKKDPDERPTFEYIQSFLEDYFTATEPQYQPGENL

For Cc1nc(Nc2ncc(C(=O)Nc3c(C)cccc3Cl)s2)cc(N2CCN(CCNC(=O)CCC(=O)NCCOCCOCCCCCCCl)CC2)n1 [dasatinib−HT ligand], the “live-cell confocal co-localization (HaloTag recruitment to endosome/F-actin) in” value (“live-cell confocal co-localization” for short) (FGR) was “the GFP-fusion kinase co-localized with the intracellular compartments”, the IC50 (ABL1) was 153 nM and the “Western blot of pY416 autophosphorylation of EGFP-SRC in HeLa cells; live-cell c” value (SRC) was “the levels of active, phosphorylated SRC significantly decreased compared with those in vehicle-treated HeLa cells”. The “live-cell confocal co-localization” value (HCK) was “the GFP-fusion kinase co-localized with the intracellular compartments”, the “live-cell confocal co-localization” value (LYN) was “the GFP-fusion kinase co-localized with the intracellular compartments” and the “live-cell confocal co-localization” value (YES1) was “the GFP-fusion kinase co-localized with the intracellular compartments”. For the same molecule, the “live-cell confocal co-localization” value (BTK) was “the GFP-fusion kinase co-localized with the intracellular compartments” and the “live-cell confocal co-localization” value (CSK) was “clearly showed binding events between dasatinib and its target kinases (ABL1, SRC, CSK, etc.) at specific subcellular structures”.

From article PMC12193096 (International Journal of Molecular Sciences, 2025)
